How the values were obtained:
fungus = experiment: Fungus growth on treated foods stored in closed containers at room temperature; conditions: for Spoilage Time - Sample: Fungus;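 on Effectiveness on ginger: compared with untreated control ginger in closed containers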
Source text: (§1) Most of the foods changed color or texture.
Glass jars and bottles were also used. The containers were snap-closed or with a lid.
(§2) These bags were sealed with a heat sealer.
(§3) The assembly was shaken periodically.

[1] = Curdling / cream / solidification of milk; conditions: for Curdling of milk: pasteurized whole and fat-free milk;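 on Curdling of milk: compared with untreated control milk in closed containers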;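 on Curdling: compared with untreated control milk in closed containers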
Source text: as §1

[2] = system: grains, legumes, potatoes, garlic; experiment: Germination / sprouting of grains, legumes and tubers; conditions: potatoes
Source text: as §2, §3

[3] = General shelf-life extension of foods (spoilage criteria of Example 9); conditions: for Effectiveness for controlling one or more spoilage criteria: variety of foods
Description: All studies were conducted at a room temperature of about 25° C. To determine the effectiveness of a shelf-life extender, a control sample which was untreated with any shelf-life extenders, was tested identical to the test samples. […] All studies in those Examples of Tables 1-6 were conducted in closed plastic or glass containers. Containers, such as plastic containers, without or with lids having holes can be used if it is advantageous to let excess moisture escape or to prevent condensation of moisture released by some produce.
Food exposed to preservatives or by a sachet was placed in typically polystyrene or acrylic containers depending upon the size and number of food items. Glass jars and bottles were also used. The containers were snap-closed or with a lid. The containers were purchased mainly from Amazon or Webstaurant.com store. When needed, plastic containers with holes or without lids were used.
For controlled exposure and a constant supply of a preservative to foods, sachets containing one or more drops of preservatives were used. Sachets were made by placing an appropriate amount of a preservative in a plastic bag containing a piece of paper and heat sealing the bag. The sachet bag materials used were Tyvek® for solid preservative, polyethylene, polyester and high barrier multilayer films were used for liquid preservatives. These bags were sealed with a heat sealer. The sachet was typically applied on one side of the container containing food.
A piece of paper napkin was taped inside a 100 microns thick polyethylene or polyester Ziploc bag. The size of the bag varied from ˜20 cm×30 cm to ˜60 cm×90 cm depended on the sample with sandwich bags up to gallon bags being exemplary. The paper napkin was wetted with 0.1-0.5 ml of a preservative or a mixture of preservatives. A tray of aluminum, stainless steel or glass containing the foods was placed inside the plastic (polyethylene, polyester and multilayer-laminated) bag and almost closed by locking the Ziploc. Air was blown with an air blower from the unclosed end until the bag was fully blown and then quickly closed tightly by locking the remaining Ziploc. If a preservative was a sublimable solid, it was placed in a petri dish and then placed inside the bag in the tray before blowing air. The exposure time was varied from five minutes to a day depending upon the food. […] The assembly was shaken periodically. After the predetermined time, the tray containing produce was removed from the bag, allowed to de-gas for 10-30 minutes in air and the produce was then placed in an appropriately sized container. Glass and stainless steel containers with lids were also often used.
A solution of one or more preservatives was prepared in a large (e.g., 2-10 liter) glass beaker or a jar. A sack containing the food was prepared by placing the food in a plastic mesh bag. The sack was placed in the solution of the preservative. A smaller glass beaker containing proper amount of water was place over the package to keep the sack soaked in the solution of the preservative during the treatment. The solution was stirred either with a plastic spatula or with a magnet over a magnetic stirrer. After treatment, the mesh sack was removed, the produce was washed in a tray with running water, strained and air dried at 30° C. in an air blowing oven for about 5-10 minutes, while shaking the tray or turning the food periodically followed by placing the sample in an appropriate container.
The food was placed in mesh trays and sprayed with an aqueous solution (1-10%) of a preservative while shaking the tray or turning the food. The solution was allowed to drain from the tray and the food was air dried in an air blowing oven at 30° C. for about 5-10 minutes, while shaking the tray or turning food periodically followed by placing the sample in an appropriate container.

CC(C)(C)c1ccc(B(O)O)cc1 [4-tert-butylphenylboronic acid, 4-tert-Butylphenylboronic acid]
Shelf-life of tomato juice (fungus; Example 133, fresh cold pressed tomato juice): improve shelf-life
Spoilage Time - Sample (Fungus) (fungus; Tomato juice, 0.20 g, control 4 days): 27 days
Shelf-life of raw milk yogurt (fungus; raw milk yogurt): extended shelf-life
Curdling of milk [1]: delayed curdling
Curdling ([1]; raw cow milk and raw goat milk): delayed curdling

S=C=Nc1ccccc1 [PI, phenyl isothiocyanate]
Spoilage Time - Sample (fungus; Example 87, White pearl onions, Sachet, 100% relative humidity, control 8 days): 48 days
Spoilage Time - Sample (fungus; Example 88, Yellow pearl onions, Sachet, 100% relative humidity, control 24 days): 48 days
Effectiveness in extending freshness of cold press fresh juices (fungus): effective
Curdling ([1]; raw cow milk and raw goat milk): delayed curdling
Effectiveness at extending the shelf-life of potatoes [2]: effective

Oc1cccc(O)c1 [resorcinol]
Effectiveness for controlling one or more spoilage criteria [3]: effective to a greater or lesser extent

COC(=O)c1ccc(B(O)O)cc1 [4-(methoxycarbonyl)phenylboronic acid]
Effectiveness in extending freshness of cold press fresh juices (fungus): effective
Curdling of milk [1]: delayed curdling
Curdling ([1]; raw cow milk and raw goat milk): delayed curdling

Cc1cc(C)cc(B(O)O)c1 [3,5-dimethylphenylboronic acid]
Effectiveness in extending freshness of cold press fresh juices (fungus): effective
Curdling of milk [1]: delayed curdling
Curdling ([1]; raw cow milk and raw goat milk): delayed curdling

Cc1ccccc1B(O)O [2-methylphenylboronic acid]
Curdling of milk [1]: delayed curdling

N.NC(=O)O [ACB, Ammonium carbaminate]
Spoilage Time - Sample (Fungus) (fungus; Fresh, unshelled peanuts, Sachet, control 5 days): 45 days

O=C1CCCCCC1 [CH, Cycloheptanone]
Spoilage Time - Sample (fungus; Example 91, Blueberry, Sachet, control 5 days): 67 days
Shelf-life of flowery vegetables [3]: extended shelf-life
Effectiveness for controlling one or more spoilage criteria [3]: effective to a greater or lesser extent

CC12CCC(CC1=O)C2(C)C (racemic) [(±)-camphor]
Shelf-life of flowery vegetables [3]: extended shelf-life

CC1CCCCC1=O (centres unmarked) [2MC, 2-Methylcyclohexanone]
Fungus growth (fungus; strawberries, raspberries, blackberries and lychee): either prevented or significantly delayed
Shelf-life of flowery vegetables [3]: extended shelf-life
Effectiveness for controlling one or more spoilage criteria [3]: effective to a greater or lesser extent

COc1ccccc1B(O)O [2-methoxyphenylboronic acid]
Effectiveness in extending freshness of cold press fresh juices (fungus): effective
Curdling ([1]; raw cow milk and raw goat milk): delayed curdling

c1ccc(COCc2ccccc2)cc1 [benzyl ether, Benzyl Ether]
Fungus growth (fungus; Example 146, ginger, pre-exposed to vapor, control 12 days): > 37 days
Spoilage Time - Sample (Fungus) (fungus; Ginger, 1 hr P-E, control 12 days): 37 days
Effectiveness for controlling one or more spoilage criteria [3]: effective to a greater or lesser extent

O=C1CCCC1 [CP, Cyclopentanone]
Spoilage Time - Sample (fungus; Example 115, Strawberry, Sachet, control 2 days): 5 days
Shelf-life of flowery vegetables [3]: extended shelf-life
Effectiveness for controlling one or more spoilage criteria [3]: effective to a greater or lesser extent

OB(O)O [boric acid]
Curdling of milk [1]: delayed curdling

CC1=CCCC1 [MCP, 1-Methylcyclopentene]
Shelf-life of flowery vegetables [3]: extended shelf-life
Shelf-life of shelled and unshelled peanuts ([3]; peanuts): extended
Effectiveness for controlling one or more spoilage criteria [3]: effective to a greater or lesser extent

S=C=NCc1ccccc1 [benzyl isothiocyanate]
Curdling ([1]; raw cow milk and raw goat milk): delayed curdling

COC(=O)C1CCCC1=O (centres unmarked) [methyl cyclopentanone-2-carboxylate]
Effectiveness for controlling one or more spoilage criteria [3]: effective to a greater or lesser extent

N.N.N.O=P(O)(O)O [ammonium phosphate]
Effectiveness at extending the shelf-life of potatoes [2]: effective

OB(O)c1ccc(Br)cc1 [4-bromophenylboronic acid, 4-Bromophenylboronic acid]
Fungus growth (fungus; Example 134, raw milk yogurt, preservative added, control 3 days): > 5 days
Spoilage Time - Sample (Fungus) (fungus; Raw milk yogurt, 0.10 g, control 3 days): 5 days
Effectiveness in extending freshness of cold press fresh juices (fungus): effective
Curdling of milk [1]: delayed curdling
Curdling ([1]; raw cow milk and raw goat milk): delayed curdling

CCCCN=C=S [butyl isothiocyanate]
Effectiveness in extending freshness of cold press fresh juices (fungus): effective
Curdling ([1]; raw cow milk and raw goat milk): delayed curdling

CCCCB(O)O [butylboronic acid]
Effectiveness in extending freshness of cold press fresh juices (fungus): effective
Shelf-life of raw milk yogurt (fungus; raw milk yogurt): extended shelf-life
Curdling of milk [1]: delayed curdling
Curdling ([1]; raw cow milk and raw goat milk): delayed curdling

COC(=O)CC(=O)OC [dimethyl malonate]
Effectiveness for controlling one or more spoilage criteria [3]: effective to a greater or lesser extent

CC1CCC(=O)CC1 [4-methylcyclohexanone]
Shelf-life of flowery vegetables [3]: extended shelf-life
Effectiveness for controlling one or more spoilage criteria [3]: effective to a greater or lesser extent

Cc1ccc(N=C=S)cc1 [p-tolyl isothiocyanate]
Curdling ([1]; raw cow milk and raw goat milk): delayed curdling

CCN=C=S [EI, ethyl isothiocyanate]
Spoilage Time - Sample (fungus; Example 85, Tomato juice, 0.02 g, control 4 days): 27 days
Spoilage Time - Sample (fungus; Example 85, Tomato juice, 0.02 g, control 4 days, listed as Ethyl isothiocyanate): improve shelf-life
Effectiveness on ginger (fungus; ginger, pre-exposure and sachet method): found effective
Shelf-life of raw milk yogurt (fungus; raw milk yogurt): extended shelf-life
Spoilage Time - Sample ([1]; Example 84, Cream, Raw cow milk, 0.07 g, control 3 days): 24 days
Spoilage Time - Sample ([1]; Example 86, Solid, Pasteurized whole milk, 0.05 g, control 3 days): 14 days
Spoilage Time - Sample ([1]; Example 86, Solid, Pasteurized whole milk, 0.05 g, control 3 days, listed as ethyl isothiocyanate): either prevented or significantly delayed
Effectiveness at extending the shelf-life of potatoes [2]: effective

OB(O)c1cccc(Cl)c1 [3-chlorophenylboronic acid, 3-Chlorophenylboronic acid]
Effectiveness in extending freshness of cold press fresh juices (fungus): effective
Shelf-life of raw milk yogurt (fungus; raw milk yogurt): extended shelf-life
Curdling ([1]; Example 135, fat-free milk): either prevented or significantly delayed
Spoilage Time - Sample (Solid) ([1]; Pasteurized fat free milk, 0.05 g, control 3 days): 14 days
Curdling of milk [1]: delayed curdling
Curdling ([1]; raw cow milk and raw goat milk): delayed curdling

CC(=O)CC(C)(C)O [4-hydroxy-4-methyl-2-pentanone]
Effectiveness for controlling one or more spoilage criteria [3]: effective to a greater or lesser extent

S [hydrogen sulfide, Hydrogen sulfide]
Fungus growth (fungus; Example 159, snow peas, Himalayan salt sachet, control 6 days): > 11 days
Spoilage Time - Sample (Fungus) (fungus; Snow peas, Sachet, control 6 days (Example 159)): 11 days
Spoilage Time - Sample (Fungus) (fungus; Snow peas, Sachet, control 11 days (Example 160)): 15 days

OB(O)c1ccc(-c2ccccc2)cc1 [4-biphenylboronic acid]
Effectiveness in extending freshness of cold press fresh juices (fungus): effective
Curdling of milk [1]: delayed curdling
Curdling ([1]; raw cow milk and raw goat milk): delayed curdling

COc1cccc(B(O)O)c1 [3-methoxyphenylboronic acid, 3-Methoxyphenylboronic acid]
Fungus growth (fungus; 96 h): > 27 days
Spoilage Time - Sample (Fungus) (fungus; Orange juice with peel, 0.02 g, control 4 days): 27 days
Curdling of milk [1]: delayed curdling
Curdling ([1]; raw cow milk and raw goat milk): delayed curdling

Cc1ccc2cccc(O)c2n1 [2-methyl-8-quinolinol]
Effectiveness for controlling one or more spoilage criteria [3]: effective to a greater or lesser extent

O=c1ccc2ccccc2o1 [coumarin]
Effectiveness for controlling one or more spoilage criteria [3]: effective to a greater or lesser extent
